# In paper PMC3715890, “A Cyclic Peptide Inhibitor of HIF-1 Heterodimerization That Inhibits Hypoxia Signaling in Cancer Cells” (Journal of the American Chemical Society, 2013):
# Entries after “also recorded” stand apart in the source; their conditions may differ.
# What was measured:
# [1] = tested on: VEGF mRNA in hypoxic U2OS cells; assay: VEGF mRNA qPCR, U2OS; type: cell-based, human; details: hypoxia 16 h, 100 μM
# Procedure: (§1) Cells were treated with the stated concentrations of inhibitor (P1, P2, or P3) and incubated in normoxia for 4 h, followed by incubation in a hypoxic environment. All manipulation of cell pellets (e.g., lysis, mRNA, and protein extraction) was conducted in a hypoxic environment.
# (§2) Total RNA was extracted from MCF-7 and U2OS cells using RNeasy Mini Kit (74104, QIAGEN) and quantified using a Nanodrop ND-1000 spectrophotometer. Complementary DNA was synthesized in a 20 μL reaction containing 1 μg of total RNA, using qScript cDNA SuperMix (95048-100, Quanta Biosciences) according to the manufacturer’s instructions. Quantitative real-time PCRs were performed using Universal Taqman PCR master mix (Applied Biosystems) >and the Taqman gene expression assay of interest (Applied Biosystems) on an ABI StepOnePlus Real-Time PCR system (Applied Biosystems). Expression assays used in this study were HIF-1α (00936376_m1), VEGF-A (Hs00173626_m1), CAIX (Hs00154208_m1), LOX (Hs00942480_m1), HIF2α (Hs01026149_m1), CITED2 (Hs01897804_s1), and 18S (Hs99999901_m1). All expression values were normalized using expression of 18S.
# [2] = biological target: T1, PAS-B domain of HIF-1α (Homo sapiens, UniProt Q16665); assay: Isothermal titration calorimetry, PAS-B; type: binding; details: ITC, 25 °C, pH 7.5, 10 µM PAS-B
# T1 construct: Per-ARNT-Sim-B (PAS-B, amino acids 235–350) domains; His (N); made in house; host or cells: E. coli BL21(DE3)
# T1 sequence (Q16665 235-350): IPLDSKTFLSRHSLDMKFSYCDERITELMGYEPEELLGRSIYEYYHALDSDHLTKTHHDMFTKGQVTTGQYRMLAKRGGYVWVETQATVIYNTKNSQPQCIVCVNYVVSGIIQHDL
# [3] = tested on: VEGF mRNA in hypoxic MCF-7 cells; assay: VEGF mRNA qPCR, MCF-7; type: cell-based; details: MCF-7, hypoxia 16 h, 100 μM
# Procedure: as §1, §2
# [4] = tested on: HIF-1 (HIF-dependent luciferase reporter, U2OS-HRE-luc cells); assay: HIF-1-dependent luciferase reporter assay, U2OS-HRE-luc; type: cell-based, human; details: U2OS-HRE-luc
# Procedure: The ability of P1–P3 to disrupt HIF-1 function in cells was assessed using a HIF-1-dependent luciferase reporter assay.[15],[21] The assay uses human osteosarcoma U2OS cells, stably transfected with a HIF-dependent luciferase reporter construct (U2OS-HRE-luc), where activation of HIF results in an increase in luciferase expression.[15]
# (§3) Endogenous HIF-1 luciferase reporter assays were conducted as previously reported in U2OS-HRE-luc[15] and MCF-7 cells.[46] For plasmid-expressed HIF-α luciferase reporter assays, MCF-7 and U2OS cells were transiently transfected with plasmids expressing HIF-1α, HIF-2α, or a blank control (pcDNA3.1-HIF-1α, pcDNA3.1-HIF-2α, or pcDNA3.1), a renilla-encoding control (phRL-TK), and a HIF-dependent firefly luciferase reporter construct (pGL2-TK-HRE), using Transfast (Promega) according to the manufacturer’s instructions. After 24 h, cells were recovered and plated (4000 cells/well) in 96-well plates (Perkin-Elmer) and incubated for 5 h before either hypoxic or aerobic incubation in presence or absence of cyclic peptide inhibitors. Firefly and renilla activities were determined using Dual-Glo Reagent (Promega) according to the manufacturer’s instructions. The luciferase signal was normalized using the corresponding renilla values.
# as §1
# [5] = tested on: endogenous HIF-1α/HIF-1β interaction in MCF-7 cells; assay: In situ proximity ligation assay (PLA), MCF-7; type: cell-based; details: 100 μM, MCF-7, hypoxia (1% O2) 4 h
# Text: The effect of P1 on the endogenous HIF-1α/HIF-1β interaction in intact cells was directly probed using an in situ proximity ligation assay (PLA);[30] primary antibodies (HIF-1α and HIF-1β here) raised in different species are bound by specific secondary antibodies that are tagged with a short DNA strand. The DNA on the interacting PLA probes forms a mini-plasmid that is amplified and bound by a red fluorescent dye. The HIF-1α/HIF-1β interaction is thus visualized as red dots in the DAPI-stained nuclei of MCF-7 and U2OS cells (Figure 4). We observed an increase in PLA signal in MCF-7 cells incubated in hypoxia (1% O2) for 4 h, indicating the expected formation of the HIF-1 dimer in hypoxia (Figure 4, panel 1 versus panel 2). […] The observed effect is not due to a reduction in HIF-1α by P1 (Western blot inset in Figure 4) and thus may be solely attributed to disruption of HIF-1α/HIF-1β dimers.
# as §1
# Duolink proximity ligation assay was conducted using the in situ PLA Kit (O-Link Bioscience, Uppsala, Sweden) according to the manufacturer’s instructions. […]
# [6] = tested on: U2OS-luc control cell line stably expressing luciferase; assay: Control constitutive luciferase reporter, U2OS-luc; type: cell-based, human
# Text: Figure S3: Identification of cyclic peptide HIF-1 inhibitors. (A) SICLOPPS expression is induced by arabinose, which processes to give a member of the cyclic peptide library. A dimerization inhibitor would be expected to rescue growth of the HIF-1 RTHS on selective media plates containing IPTG, kanamycin and 3-amino-triazole, and arabinose. (B) The ability of the selected cyclic peptides to […]
# HIF-1 RTHS containing the corresponding SICLOPPS plasmid onto selective media. In the absence of arabinose the SICLOPPS split-intein is not produced; the HIF-1 RTHS containing plasmids encoding […]
# colonies show survival on selective media plates containing IPTG and arabinose (panel 2). Expressing the 3 selected cyclic peptides from mutant SICLOPPS inteins (H24A, F26A mutations in the C- […]
# cyclic form of the peptides and their activity. […]
# expressing a constitutive luciferase reporter construct. […]
# [7] = tested on: HIF-2 (HIF-dependent luciferase reporter, MCF-7 cells); assay: HIF-2 luciferase reporter assay, MCF-7; type: cell-based; details: MCF-7, transfected HIF-2α
# Text: In addition, P1 had no effect on VEGF protein levels in hypoxic 786-O cells (Figure 6B). To further probe the effect of P1 on HIF-2, a luciferase reporter assay was developed and used. The assay was derived from the HIF-1 luciferase reporter assay detailed above (Figure 2C and D) and adapted for HIF-2 by replacing the plasmid encoding HIF-1α with the equivalent plasmid encoding HIF-2α. […] P2 and P3 also had no effect on HIF-2 in this assay (Figure S9).
# as §3
# [8] = tested on: CAIX mRNA in hypoxic MCF-7 cells; assay: CAIX mRNA qPCR, MCF-7; type: cell-based; details: MCF-7, hypoxia, 100 μM
# Procedure: as §1, §2
substance,measurement,setting,value
"Tat-cyclo-CRLMVL (head to tail) [P2, cyclo-CRLMVL tagged with Tat peptide via a disulfide bond; used as negative control]",VEGF mRNA,[1],had no effect
same,binding to PAS-B domain,[2],no binding; also recorded: did not bind
same,VEGF mRNA,[3],had no effect
same,effect on luciferase reporter in hypoxia,[4]; hypoxia (1% O2),did not show an effect
same,effect on luciferase reporter in normoxia (basal),[4]; normoxia,did not show an effect
same,HIF-1 PLA signal,[5],did not have any effect on the PLA signal
same,effect on constitutive luciferase signal,[6],do not affect
same,effect on HIF-2 luciferase reporter signal,[7],do not affect
same,CAIX mRNA,[8],no effect
